Laboratory results taken from patent publication US20220370416A1, “COMPOUNDS AND METHODS FOR TARGETED DEGRADATION OF KRAS” (Arvinas Operations, Inc., priority 2020, published 2022).

Target: HiBit-KRAS^G12C (Homo sapiens, UniProt P01116, G12C)
Experiment: HiBit degradation assay in SW1573 HiBit-KRas^G12C cells
Assay type: cell-based
Set-up: expressed in transfected cells; host or cells: SW1573 (clone E6), modified pcDNA3.1 vector, TK promoter
Conditions: 0.1% DMSO, 24 hours; for DC50: SW1573 HiBit-KRas^G12C, read-out: KRas^G12C-HIBit (SW1573; 0.1% DMSO) DC50*; for Dmax: SW1573, SW1573 HiBit-KRas^G12C, read-out: KRas^G12C-HiBit (SW1573; 0.1% DMSO) Dmax**
Method: Reagents. SW1573 (CRL-2170) and MiaPaCa-2 (CRL-1420) cells were purchased from ATCC. Both cell lines are […] for the G12C mutation in KRAS. SW1573 cells were cultured in DMEM+F12+Glutamax (+Sodium Bicarbonate, +sodium pyruvate, Thermofisher scientific, #10565) supplemented with 10% FBS (Thermofisher scientific, #2060357) and 1% Antibiotic-Antimycotic (Thermofisher scientific, #15240096). MiaPaCa-2 cells were cultured in DMEM+Glutamax media (Thermofisher scientific, #10566) supplemented with 10% FBS (Thermofisher scientific, #2060357) and 1% Antibiotic-Antimycotic (Thermofisher scientific, #15240096). For degradation assays, 384 well plates were purchased from Corning (Corning® CellBIND® 384-well Flat Clear Bottom Black Polystyrene Microplates, Low Flange, #3770). Gambogic acid was purchased from Selleckchem (#S2448). Alamar blue was purchased from Thermofisher scientific (A50101) and used according to manufacturer instructions. The Nano-Glo® HiBit Lytic Detection System and Nano-Glo® HiBit Blotting System were purchased from Promega (#N3050 and #N2410) and used according to manufacturer instructions.
To create the SW1573 HiBit-KRAS^G12C cell line, the nucleotide sequence encoding the 11 amino acid HiBit tag from Promega (Schwinn, M. K. et al. (2018) CRISPR-mediated tagging of endogenous proteins with a luminescent peptide. ACS Chem. Biol. 13(2), 467-474) was appended to the N-terminus of the KRAS^G12C coding sequence. This synthesized DNA was cloned into a modified pcDNA3.1 vector under the control of the thymidine kinase (TK) promoter. This HiBit-KRAS^G12C expressing plasmid was transfected into parental SW1573 cells and colonies were selected using 400 μg/mL zeocin. The resulting clonal lines were screened for expression of HiBit-KRAS^G12C protein using Nano-Glo® HiBit Blotting System. A luminescent band of the correct size for HiBit-KRAS^G12C was detected in several clones. Clone E6 was selected for further studies.
Either SW1573 HiBit-KRas^G12C or MiaPaCa-2 HiBit-KRas^G12C cells were plated at 9000 cells/well in a 384 well plate (Corning #3770). Exemplary heterobifunctional molecules and positive controls were diluted in the appropriate cell media and applied to the plated cells resulting in a final concentration titration of 10 μM to 20 nM in either 0.1% or 0.5% dimethyl sulfoxide (DMSO). Gambogic acid was used as a positive control for cytotoxicity and titrated from 10 μM to 78 nM. All assays were performed in triplicate. Cells were treated with compounds for 24 hours at 37° C. in an incubator containing 5% CO2. Following treatment, alamar blue was used to determine if any compounds led to a loss in cell viability after 24 hours. The 10× alamar blue reagent was added to a final concentration of 1× as recommended by the manufacturer and cells were returned to the incubator for 4 hours. Plates were then allowed to equilibrate to room temperature and fluorescence was measured using a Perkin-Elmer EnVision. After completion of the fluorescence read, the liquid from each well was removed and the cells were washed with PBS. The Nano-Glo® HiBiT detection reagent was prepared according to the manufacturer's instructions and added to each well after the PBS wash was removed. Following incubation at room temperature for 45 minutes, the luminescence was read using the ultra-sensitive luminescence aperture on the Envision instrument.
Fluorescence values from the alamar blue treatment were normalized to the DMSO only control for each compound titration. We hypothesized that compounds that led to a ≥50% loss in cell viability of the KRAS-independent SW1573 HiBit-KRas^G12C cells were likely generally cytotoxic and loss of HiBit-KRAS^G12C signal from these compounds may be due to lower cell number and not specific KRAS^G12C degradation. These points were therefore excluded from the data analysis for degradation. […]

Sequence of HiBit-KRAS^G12C (P01116 1-186 isoform P01116-2 G12C limits assumed): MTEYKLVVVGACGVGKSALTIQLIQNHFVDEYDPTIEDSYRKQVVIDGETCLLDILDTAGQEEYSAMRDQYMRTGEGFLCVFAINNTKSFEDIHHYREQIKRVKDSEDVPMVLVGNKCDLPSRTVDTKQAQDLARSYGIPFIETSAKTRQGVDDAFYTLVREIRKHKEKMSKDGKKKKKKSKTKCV

| SMILES | DC50 | Dmax |
| --- | --- | --- |
| C=CC(=O)N1CCN(c2nc(O[C@H](C)CN3CCC(OCCOCCOCCOCCOCCOc4cc(-c5scnc5C)ccc4CNC(=O)[C@@H]4C[C@@H](O)CN4C(=O)[C@H](c4cc(C)no4)C(C)C)CC3)nc3c(F)c(-c4cc(O)cc5ccccc45)c(Cl)cc23)CC1 [Compound 79, (2S,4R)-N-[(2-{[14-({1-[(2R)-2-{[6-chloro-8-fluoro-7-(3-hydroxynaphthalen-1-yl)-4-[4-(prop-2-enoyl)piperazin-1-yl]quinazolin-2-yl]oxy}propyl]piperidin-4-yl}oxy)-3,6,9,12-tetraoxatetradecan-1-yl]oxy}-4-(4-methyl-1,3-thiazol-5-yl)phenyl)methyl]-4-hydroxy-1-[(2S)-3-methyl-2-(3-methyl-1,2-oxazol-5-yl)butanoyl]pyrrolidine-2-carboxamide] | > 1 µM | – |
| C=CC(=O)N1CCN(c2nc(OC[C@@H]3C[C@@H](OCCOc4cc(-c5scnc5C)ccc4CNC(=O)[C@@H]4C[C@@H](O)CN4C(=O)[C@@H](c4cc(C)no4)C(C)C)CN3C)nc3c2CCN(c2cccc4ccccc24)C3)C[C@@H]1CC#N [Compound 87, (2S,4R)-N-{[2-(2-{[(3R,5S)-5-[({4-[(3S)-3-(cyanomethyl)-4-(prop-2-enoyl)piperazin-1-yl]-7-(naphthalen-1-yl)-5H,6H,7H,8H-pyrido[3,4-d]pyrimidin-2-yl}oxy)methyl]-1-methylpyrrolidin-3-yl]oxy}ethoxy)-4-(4-methyl-1,3-thiazol-5-yl)phenyl]methyl}-4-hydroxy-1-[(2R)-3-methyl-2-(3-methyl-1,2-oxazol-5-yl)butanoyl]pyrrolidine-2-carboxamide] | > 1 µM | 35 to 70% |
| C=CC(=O)N1CCN(c2nc(O[C@H](C)CN3CC(COCC(=O)N[C@H](C(=O)N4C[C@H](O)C[C@H]4C(=O)N[C@@H](C)c4ccc(-c5scnc5C)cc4)C(C)(C)C)C3)nc3c(F)c(-c4cc(O)cc5ccccc45)c(Cl)cc23)CC1 [Compound 42, (2S,4R)-1-[(2S)-2-[2-({1-[(2R)-2-{[6-chloro-8-fluoro-7-(3-hydroxynaphthalen-1-yl)-4-[4-(prop-2-enoyl)piperazin-1-yl]quinazolin-2-yl]oxy}propyl]azetidin-3-yl}methoxy)acetamido]-3,3-dimethylbutanoyl]-4-hydroxy-N-[(1S)-1-[4-(4-methyl-1,3-thiazol-5-yl)phenyl]ethyl]pyrrolidine-2-carboxamide] | > 1 µM | < 35% |
| C=CC(=O)N1CCN(c2nc(O[C@H](C)CN3CCC(OCCOc4cc(-c5scnc5C)ccc4CNC(=O)[C@@H]4C[C@@H](O)CN4C(=O)[C@@H](c4cc(C)no4)C(C)C)CC3)nc3c(F)c(-c4cc(O)cc5ccccc45)c(Cl)cc23)CC1 [Compound 78, (2S,4R)-N-({2-[2-({1-[(2R)-2-{[6-chloro-8-fluoro-7-(3-hydroxynaphthalen-1-yl)-4-[4-(prop-2-enoyl)piperazin-1-yl]quinazolin-2-yl]oxy}propyl]piperidin-4-yl}oxy)ethoxy]-4-(4-methyl-1,3-thiazol-5-yl)phenyl}methyl)-4-hydroxy-1-[(2R)-3-methyl-2-(3-methyl-1,2-oxazol-5-yl)butanoyl]pyrrolidine-2-carboxamide] | > 1 µM | – |
| C=CC(=O)N1CCN(c2nc(OCCN3CCC(OCCOCC(=O)N[C@H](C(=O)N4C[C@H](O)C[C@H]4C(=O)N[C@@H](C)c4ccc(-c5scnc5C)cc4)C(C)(C)C)CC3)nc3c(F)c(-c4cccc5cccc(C)c45)c(Cl)cc23)C[C@@H]1CC#N [Compound 23, (2S,4R)-1-[(2S)-2-{2-[2-({1-[2-({6-chloro-4-[(3S)-3-(cyanomethyl)-4-(prop-2-enoyl)piperazin-1-yl]-8-fluoro-7-(8-methylnaphthalen-1-yl)quinazolin-2-yl}oxy)ethyl]piperidin-4-yl}oxy)ethoxy]acetamido}-3,3-dimethylbutanoyl]-4-hydroxy-N-[(1S)-1-[4-(4-methyl-1,3-thiazol-5-yl)phenyl]ethyl]pyrrolidine-2-carboxamide] | > 1 µM | – |
| C=CC(=O)N1CCN(c2nc(OCCN3CCC(COCC(=O)N[C@H](C(=O)N4C[C@@H](O)C[C@H]4C(=O)N[C@@H](C)c4ccc(-c5scnc5C)cc4)C(C)(C)C)CC3)nc3c(F)c(-c4cc(O)cc5ccccc45)c(Cl)cc23)CC1 [Compound 8, (2S,4S)-1-[(2S)-2-(2-{[1-(2-{[6-chloro-8-fluoro-7-(3-hydroxynaphthalen-1-yl)-4-[4-(prop-2-enoyl)piperazin-1-yl]quinazolin-2-yl]oxy}ethyl)piperidin-4-yl]methoxy}acetamido)-3,3-dimethylbutanoyl]-4-hydroxy-N-[(1S)-1-[4-(4-methyl-1,3-thiazol-5-yl)phenyl]ethyl]pyrrolidine-2-carboxamide] | > 1 µM | – |
| C=CC(=O)N1CCN(c2nc(O[C@H](C)CN3CCC(OCCOCC(=O)N[C@H](C(=O)N4C[C@H](O)C[C@H]4C(=O)N[C@@H](C)c4ccc(-c5scnc5C)cc4)C(C)(C)C)CC3)nc3c(F)c(-c4c(O)cccc4F)c(Cl)cc23)C[C@H]1C [Compound 44, (2S,4R)-1-[(2S)-2-{2-[2-({1-[(2R)-2-{[6-chloro-8-fluoro-7-(2-fluoro-6-hydroxyphenyl)-4-[(3R)-3-methyl-4-(prop-2-enoyl)piperazin-1-yl]quinazolin-2-yl]oxy}propyl]piperidin-4-yl}oxy)ethoxy]acetamido}-3,3-dimethylbutanoyl]-4-hydroxy-N-[(1S)-1-[4-(4-methyl-1,3-thiazol-5-yl)phenyl]ethyl]pyrrolidine-2-carboxamide] | > 1 µM | – |
| C=C(F)C(=O)N1CCN(c2nc(OCCN3CCC(OCCOc4cc([C@@H](C(=O)N5C[C@H](O)C[C@H]5C(=O)N[C@@H](C)c5ccc(-c6scnc6C)cc5)C(C)C)on4)CC3)nc3c(F)c(-c4cc(O)cc5ccccc45)c(Cl)cc23)C[C@@H]1CC#N [Compound 1, (2S,4R)-1-[(2S)-2-{3-[2-({1-[2-({6-chloro-4-[(3S)-3-(cyanomethyl)-4-(2-fluoroprop-2-enoyl)piperazin-1-yl]-8-fluoro-7-(3-hydroxynaphthalen-1-yl)quinazolin-2-yl}oxy)ethyl]piperidin-4-yl}oxy)ethoxy]-1,2-oxazol-5-yl}-3-methylbutanoyl]-4-hydroxy-N-[(1S)-1-[4-(4-methyl-1,3-thiazol-5-yl)phenyl]ethyl]pyrrolidine-2-carboxamide] | > 1 µM | – |
| C=CC(=O)N1CCN(c2nc(O[C@H](C)CN3CCC(CC(=O)N[C@H](C(=O)N4C[C@H](O)C[C@H]4C(=O)N[C@@H](C)c4ccc(-c5scnc5C)cc4)C(C)(C)C)CC3)nc3c(F)c(-c4cc(O)cc5ccccc45)c(Cl)cc23)CC1 [Compound 38, (2S,4R)-1-[(2S)-2-(2-{1-[(2R)-2-{[6-chloro-8-fluoro-7-(3-hydroxynaphthalen-1-yl)-4-[4-(prop-2-enoyl)piperazin-1-yl]quinazolin-2-yl]oxy}propyl]piperidin-4-yl}acetamido)-3,3-dimethylbutanoyl]-4-hydroxy-N-[(1S)-1-[4-(4-methyl-1,3-thiazol-5-yl)phenyl]ethyl]pyrrolidine-2-carboxamide] | > 1 µM | – |
